Key:
[1] = system: Septoria tritici; type: cell-based; conditions: 18° C., 7 days; 405 nm
[2] = system: GTP cyclohydrolase II; experiment: GTP cyclohydrolase activity assay coupled to formate dehydrogenase (NADH formation, absorption at 340 nm); type: biochemical, Ashbya gossypii; conditions: cell free extract, 2.5 mM GTP, 0.5 mM NAD, 2 units/ml formate dehydrogenase; FIG. 1
Method: Ashbya gossypii cells may be obtained after 2 days from a culture in 3% (w/v) malt extract +0.3% (w/v) difco-soyton, pH 5.6 at 28° C. A cell-free extract can be obtained by mechanical breakage of the cells with a kitchen blender in 50 mM imidazole buffer pH 7 containing 1 mM EDTA-Na salt, 5 mM MgSO4, 10 mM KCl, 5 mM dithiothreitol and 30% (v/v) glycerol and separation of unbroken cells and debris by centrifugation.
(§1) The assay is performed in a suitable buffer e.g. Tris/HCl, pH 7.8 including 1 mM Mg.Cl2, 1 mM DTT, 0.5 mM NAD, 2 units/ml formate dehydrogenase and 2.5 mM GTP Li salt. After the addition of the GTP cyclohydrolase comprising cell free extracts of step A), the reaction was monitored by measuring the absorption at 340 nm.
After dissolving the respective candidate compounds in a suitable solvent e.g. DMSO, an aliquot of the afore made solution is added to the reaction mixture. The enzyme activity of this sample is compared with the activity of a control comprising the pure solvent instead of the candidate compound. The resulting relative activity was calculated as percent inhibition in relation to the sample without the candidate compound.
In FIG. 1, the GTP dependant formation of NADH in the reaction mixture and inhibition by 3-Butyl-10-(3-chlorophenyl)-10H-pyrimido[4,5-b]quinoline-2,4-dione is shown.

[3] = system: Pyricularia oryzae; type: cell-based; conditions: 125 ppm compound solution, 50 μl + 50 μl spore suspension, 18° C., 7 days, 405 nm
[4] = system: Phytophthora infestans; type: cell-based; conditions: 125 ppm compound solution, 50 μl + 50 μl spore suspension, 18° C., 7 days, 405 nm
[5] = system: formate dehydrogenase; experiment: Specificity control: substrate GTP replaced with formic acid; type: biochemical; conditions: formate instead of GTP; FIG. 2
Method: as §1
To distinguish between the inhibition of GTP cyclohydrolase and formate dehydrogenase in the above-mentioned assay, the subtrate GTP is replaced with formic acid.

## CCCCn1c(=O)nc2n(-c3cccc(Cl)c3)c3ccccc3cc-2c1=O [3-butyl-10-(3-chlorophenyl)-10H-pyrimido[4,5-b]quinoline-2,4-dione]
[1]
  % growth compared with the 0 ppm control: 0%
[2]
  inhibition of GTP dependent formation of NADH: inhibition
[3]
  % growth compared with the 0 ppm control: 47.6%
[4]
  % growth compared with the 0 ppm control: 39.9%
[5]
  inhibition of formate dehydrogenase alone: No inhibition

Reference: patent publication US7435557B2 (priority 2002, dated 2008)
